# Assay results reported in paper PMC11277489, “Novel Piperazine Derivatives of Vindoline as Anticancer Agents” (International Journal of Molecular Sciences, 2024).
# Assays:
# SK-MEL-28 = test: NCI60 one-dose screen (10 μM), Melanoma; format: cell-based; conditions: Homo sapiens; 10 μM; SK-MEL-28, Melanoma; read-out: Growth percent rate
# SW-620 = test: NCI60 one-dose screen (10 μM), Colon Cancer; format: cell-based; conditions: Homo sapiens; 10 μM; SW-620, Colon Cancer; read-out: Growth percent rate
# K-562 = test: NCI60 one-dose screen (10 μM), Leukemia; format: cell-based; conditions: Homo sapiens, K562; 10 μM; K-562, Leukemia; read-out: Growth percent rate
# SF-295 = test: NCI60 one-dose screen (10 μM), CNS Cancer; format: cell-based; conditions: Homo sapiens; 10 μM; SF-295, CNS Cancer; read-out: Growth percent rate
# HS 578T = test: NCI60 one-dose screen (10 μM), Breast Cancer; format: cell-based; conditions: Homo sapiens; 10 μM; HS 578T, Breast Cancer; read-out: Growth percent rate
# RPMI-8226 = test: NCI60 one-dose screen (10 μM), Leukemia; format: cell-based; conditions: Homo sapiens; 10 μM; RPMI-8226, Leukemia; read-out: Growth percent rate
# SF-268 = test: NCI60 one-dose screen (10 μM), CNS Cancer; format: cell-based; conditions: Homo sapiens; 10 μM; SF-268, CNS Cancer; read-out: Growth percent rate
# MALME-3M = test: NCI60 one-dose screen (10 μM), Melanoma; format: cell-based; conditions: Homo sapiens; 10 μM; MALME-3M, Melanoma; read-out: Growth percent rate
# RXF 393 = test: NCI60 one-dose screen (10 μM), Renal Cancer; format: cell-based, human; conditions: Homo sapiens; 10 μM; RXF 393, Renal Cancer; read-out: Growth percent rate
# SK-MEL-5 = test: NCI60 one-dose screen (10 μM), Melanoma; format: cell-based, human; conditions: Homo sapiens; 10 μM; SK-MEL-5, Melanoma; read-out: Growth percent rate
# UACC-257 = test: NCI60 one-dose screen (10 μM), Melanoma; format: cell-based; conditions: Homo sapiens; 10 μM; UACC-257, Melanoma; read-out: Growth percent rate
# EKVX = test: NCI60 one-dose screen (10 μM), Non-small Cell Lung Cancer; format: cell-based; conditions: Homo sapiens, 10 μM, Non-small Cell Lung Cancer, read-out: Growth percent rate
# SF-539 = test: NCI60 one-dose screen (10 μM), CNS Cancer; format: cell-based, human; conditions: Homo sapiens; 10 μM; SF-539, CNS Cancer; read-out: Growth percent rate
# HCT-15 = test: NCI60 one-dose screen (10 μM), Colon Cancer; format: cell-based; conditions: Homo sapiens; 10 μM; HCT-15, Colon Cancer; read-out: Growth percent rate
# U251 = test: NCI60 one-dose screen (10 μM), CNS Cancer; format: cell-based; conditions: Homo sapiens, U-251; 10 μM; U251, CNS Cancer; read-out: Growth percent rate
# ACHN = test: NCI60 one-dose screen (10 μM), Renal Cancer; format: cell-based; conditions: Homo sapiens, 10 μM, Renal Cancer, read-out: Growth percent rate
# OVCAR-8 = test: NCI60 one-dose screen (10 μM), Ovarian Cancer; format: cell-based; conditions: Homo sapiens; 10 μM; OVCAR-8, Ovarian Cancer; read-out: Growth percent rate
# COLO 205 = test: NCI60 one-dose screen (10 μM), Colon Cancer; format: cell-based, human; conditions: Homo sapiens; 10 μM; COLO 205, Colon Cancer; read-out: Growth percent rate
# IGROV1 = test: NCI60 one-dose screen (10 μM), Ovarian Cancer; format: cell-based; conditions: Homo sapiens, IGROV-1; 10 μM; IGROV1, Ovarian Cancer; read-out: Growth percent rate
# CAKI-1 = test: NCI60 one-dose screen (10 μM), Renal Cancer; format: cell-based; conditions: Homo sapiens; 10 μM; CAKI-1, Renal Cancer; read-out: Growth percent rate
# 786–0 = test: NCI60 one-dose screen (10 μM), Renal Cancer; format: cell-based; conditions: Homo sapiens; 10 μM; 786-0, Renal Cancer; read-out: Growth percent rate
# [1] = test system: 60 human tumor cell lines (NCI60); test: NCI60 one-dose screen (10 μM), whole panel; format: cell-based
# LOX IMVI = test: NCI60 one-dose screen (10 μM), Melanoma; format: cell-based, human; conditions: Homo sapiens; 10 μM; LOX IMVI, Melanoma; read-out: Growth percent rate
# MOLT-4 = test: NCI60 one-dose screen (10 μM), Leukemia; format: cell-based, human; conditions: Homo sapiens; 10 μM; MOLT-4, Leukemia; read-out: Growth percent rate
# SNB-19 = test: NCI60 one-dose screen (10 μM), CNS Cancer; format: cell-based; conditions: Homo sapiens; 10 μM; SNB-19, CNS Cancer; read-out: Growth percent rate
# M14 = test: NCI60 one-dose screen (10 μM), Melanoma; format: cell-based; conditions: Homo sapiens; 10 μM; M14, Melanoma; read-out: Growth percent rate
# HT29 = test: NCI60 one-dose screen (10 μM), Colon Cancer; format: cell-based; conditions: Homo sapiens, HT-29; 10 μM; HT29, Colon Cancer; read-out: Growth percent rate
# NCI-H23 = test: NCI60 one-dose screen (10 μM), Non-small Cell Lung Cancer; format: cell-based; conditions: Homo sapiens; 10 μM; NCI-H23, Non-small Cell Lung Cancer; read-out: Growth percent rate
# MDA-MB-435 = test: NCI60 one-dose screen (10 μM), Melanoma; format: cell-based; conditions: Homo sapiens; 10 μM; MDA-MB-435, Melanoma; read-out: Growth percent rate
# A498 = test: NCI60 one-dose screen (10 μM), Renal Cancer; format: cell-based; conditions: Homo sapiens; 10 μM; A498, Renal Cancer; read-out: Growth percent rate
# NCI-H522 = test: NCI60 one-dose screen (10 μM), Non-small Cell Lung Cancer; format: cell-based; conditions: Homo sapiens; 10 μM; NCI-H522, Non-small Cell Lung Cancer; read-out: Growth percent rate
# SN12C = test: NCI60 one-dose screen (10 μM), Renal Cancer; format: cell-based; conditions: Homo sapiens, 10 μM, Renal Cancer, read-out: Growth percent rate
# OVCAR-4 = test: NCI60 one-dose screen (10 μM), Ovarian Cancer; format: cell-based; conditions: Homo sapiens; 10 μM; OVCAR-4, Ovarian Cancer; read-out: Growth percent rate
# HOP-62 = test: NCI60 one-dose screen (10 μM), Non-small Cell Lung Cancer; format: cell-based; conditions: Homo sapiens; 10 μM; HOP-62, Non-small Cell Lung Cancer; read-out: Growth percent rate
# HCC-2998 = test: NCI60 one-dose screen (10 μM), Colon Cancer; format: cell-based; conditions: Homo sapiens; 10 μM; HCC-2998, Colon Cancer; read-out: Growth percent rate
# HL-60(TB) = test: NCI60 one-dose screen (10 μM), Leukemia; format: cell-based; conditions: Homo sapiens; 10 μM; HL-60(TB), Leukemia; read-out: Growth percent rate
# MCF7 = test: NCI60 one-dose screen (10 μM), Breast Cancer; format: cell-based; conditions: Homo sapiens; 10 μM; MCF7, Breast Cancer; read-out: Growth percent rate
# TK-10 = test: NCI60 one-dose screen (10 μM), Renal Cancer; format: cell-based; conditions: Homo sapiens; 10 μM; TK-10, Renal Cancer; read-out: Growth percent rate
# NCI-H460 = test: NCI60 one-dose screen (10 μM), Non-small Cell Lung Cancer; format: cell-based; conditions: Homo sapiens; 10 μM; NCI-H460, Non-small Cell Lung Cancer; read-out: Growth percent rate
# A549/ATCC = test: as above; format: cell-based; conditions: Homo sapiens; 10 μM; A549/ATCC, Non-small Cell Lung Cancer; read-out: Growth percent rate
# NCI-H322M = test: as above; format: cell-based; conditions: Homo sapiens, 10 μM, Non-small Cell Lung Cancer, read-out: Growth percent rate
# HCT-116 = test: NCI60 one-dose screen (10 μM), Colon Cancer; format: cell-based; conditions: Homo sapiens; 10 μM; HCT-116, Colon Cancer; read-out: Growth percent rate
compound,measurement,setting,value
"CCC12C=CCN3CCC4(c5cc(NC(=O)CCl)c(OC)cc5N(C)C4C(O)(C(=O)OC)C1OC(C)=O)C32 (stereo not shown) [Compound 12, 10-chloroacetamidovindoline]",activity at 10 µM,SK-MEL-28,-0.03%
same,activity at 10 µM,SW-620,64.5%
same,activity at 10 µM,K-562,36.4%
same,activity at 10 µM,SF-295,52.2%
same,activity at 10 µM,HS 578T,-16.8%
same,activity at 10 µM,RPMI-8226,-24.7%
same,activity at 10 µM,SF-268,-0.99%
same,activity at 10 µM,MALME-3M,-14.1%
same,activity at 10 µM,RXF 393,-32.6%
same,activity at 10 µM,SK-MEL-5,-17.6%
same,activity at 10 µM,UACC-257,-3.69%
same,activity at 10 µM,EKVX,46.6%
same,activity at 10 µM,SF-539,4.74%
same,activity at 10 µM,HCT-15,50.1%
same,activity at 10 µM,U251,-47.9%
same,activity at 10 µM,ACHN,37.3%
same,activity at 10 µM,OVCAR-8,29.6%
same,activity at 10 µM,COLO 205,87.2%
same,activity at 10 µM,IGROV1,27.5%
same,activity at 10 µM,CAKI-1,43.8%
same,activity at 10 µM,786–0,21.3%
same,antiproliferative effect (in words),"[1]; 10 μM one-dose, NCI60",moderate cytostatic activity
same,activity at 10 µM,"[1]; 10 μM, mean over 60 human cancer cell lines, read-out: Growth percent rate, Mean",18.1%
same,activity at 10 µM,LOX IMVI,11.5%
same,activity at 10 µM,MOLT-4,-26.9%
same,activity at 10 µM,SNB-19,23.1%
same,activity at 10 µM,M14,37%
same,activity at 10 µM,HT29,54.1%
same,activity at 10 µM,NCI-H23,-4.42%
same,activity at 10 µM,MDA-MB-435,39.9%
same,activity at 10 µM,A498,54.6%
same,activity at 10 µM,NCI-H522,8.28%
same,activity at 10 µM,SN12C,11%
same,activity at 10 µM,OVCAR-4,-17.1%
same,activity at 10 µM,HOP-62,-57.6%
same,activity at 10 µM,HCC-2998,24.2%
same,activity at 10 µM,HL-60(TB),37.9%
same,activity at 10 µM,MCF7,2.74%
same,activity at 10 µM,TK-10,24.8%
same,activity at 10 µM,NCI-H460,51%
same,activity at 10 µM,A549/ATCC,64%
same,activity at 10 µM,NCI-H322M,58.9%
same,activity at 10 µM,HCT-116,41.2%
